Assay results reported in US7332522B2, “Liver function protecting or ameliorating agent” (Kyowa Hakko Kogyo Co., Ltd., priority 2001, dated 2008).
Read-outs that look alike come from different tables or passages of the source.

Legend:
mast cells = conditions: at 100 μM; induced by compound 48/80 or calcium ionophore A23187; cited from earlier work
[1] = test system: rat skin passive anaphylaxis; conditions: oral administration, cited from earlier work
[2] = test system: Galactosamine-induced Rat Hepatopathy; experiment: Suppression of galactosamine-induced rat hepatopathy, GPT level in serum; assay type: in vivo, Male Wistar white rats; conditions: 15 days, serum 22 h after galactosamine 350 mg/kg i.p., relative to Comparative Example 1 feed = 100%, average ± standard error
Method: Male Wistar white rats (150±20 g, purchased from Japan SLC) were kept for at least 3 days under a fixed condition (temperature: 24±2° C., humidity: 60±5%, light and dark interval: 12 hours) for adaptation, and then fed respectively with the feeds produced in Examples 4-8 and the feed produced in Comparative Example 1 for 15 days. On the 14th day, 350 mg/kg of galactosamine (dissolved in physiological saline at a concentration of 35 mg/ml, and adjusted to pH 7.1) was intraperitoneally administered to each rat. Twenty-two hours after the administration of galactosamine, each of the rats was subjected to laparotomy under anesthesia with Nembutal and blood was collected.
Using thus obtained blood samples, blood GPT activity was measured as an indication of a liver function in the following manner. The collected blood was coagulated and separated by centrifugation to obtain a serum. The GPT level in the serum was measured using Fuji Drychem System 3500 (manufactured by Fuji Photo Film Co., Ltd.) with thus obtained serum. The GPT activity of each test group was calculated as the relative value (%) from the value obtained for each Example based on the value obtained for the feed in Comparative Example 1 expressed as 100%. The value is expressed in terms of average value±standard error and the statistical test of significance was carried out by Student's T-test.

[3] = iron rhodanate method; cited from earlier work
rat liver microsome = conditions: cited from earlier work
leukocyte = conditions: in vitro; cited from earlier work
hyaluronidase = conditions: cited from earlier work
[4] = 200 mg/kg; cited from earlier work
[5] = test system: rat gastric ulcer induced by ethanol hydrochloride; conditions: 75 mg/kg, oral administration; cited from earlier work
Staphylococcus aureus = conditions: at 1000 ppm; cited from earlier work
[6] = test system: Staphylococcus epidemidis; conditions: at 1000 ppm; cited from earlier work

COc1ccc(C2Cc3cccc(OC4OC(CO)C(O)C(O)C4O)c3C(=O)O2)cc1O (stereo not shown) [phyllodulcin 8-O-glucoside]
suppression of release of histamine from mast cells (mast cells): not suppressed
suppression of rat skin passive anaphylaxis ([1]; 300 and 500 mg/kg): suppress

O=C1O[C@@H]([C@@H](O)c2ccc(O)cc2)c2cccc(O)c21 [hydramacrophyllol B, reference compound]
suppression of release of histamine from mast cells (mast cells): not suppressed

O=C1OC(c2ccc(O)cc2)Cc2cccc(OC3OC(CO)C(O)C(O)C3O)c21 (stereo not shown) [hydrangenol 8-O-glucoside]
suppression of release of histamine from mast cells (mast cells): not suppressed
suppression of rat skin passive anaphylaxis ([1]; 300 and 500 mg/kg): suppress

O=C1O/C(=C\c2ccc(O)c(O)c2)c2cccc(O)c21 [thunberginol F, reference compound]
suppression of rat skin passive anaphylaxis ([1]; 300 and 500 mg/kg): suppress

O=C1OC(c2ccc(O)cc2)Cc2cccc(O)c21 (stereo not shown) [hydrangenol]
GPT activity (%) ([2]; feed of Example 7, hydrangenol 0.324% in feed): 64.6 ± 116.5%
GPT activity (%) ([2]; feed of Example 8, hydrangenol 0.108% in feed): 27.8 ± 45.4%
suppression of release of histamine from mast cells (mast cells): not suppressed
suppression of rat skin passive anaphylaxis ([1]; 500 mg/kg): suppress
suppressive activity on linoleic acid oxidation [3]: weak suppressive activity
suppressive activity on NADPH dependent lipid peroxidation (rat liver microsome): weak suppressive activity
concentration active in differentiation-inducing activity on leukocyte (leukocyte): 300 µM
hyaluronidase inhibitory activity (hyaluronidase): hyaluronidase inhibitory activity
cholagogic activity [4]: do not exhibit this activity
suppression of rat gastric ulcer induced by ethanol hydrochloride [5]: do not suppress

COc1ccc([C@H]2Cc3cccc(O)c3C(=O)O2)cc1O [phyllodulcin]
GPT activity (%) ([2]; feed of Example 4, phyllodulcin 0.366% in feed): 11.8 ± 18.0%
GPT activity (%) ([2]; feed of Example 5, phyllodulcin 0.122% in feed): 54.7 ± 32.2%
GPT activity (%) ([2]; feed of Example 6, phyllodulcin 0.037% in feed): 52.7 ± 59.9%
suppression of release of histamine from mast cells (mast cells): not suppressed
suppression of rat skin passive anaphylaxis ([1]; 300 and 500 mg/kg): does not suppress
suppressive activity on linoleic acid oxidation [3]: more potent suppressive activity than α-tocopherol or BHA
suppressive activity on NADPH dependent lipid peroxidation (rat liver microsome): suppressive activity at a similar level to α-tocopherol
proliferation suppressive activity (Staphylococcus aureus): proliferation suppressive activity
proliferation suppressive activity [6]: proliferation suppressive activity
concentration active in differentiation-inducing activity on leukocyte (leukocyte): 300 µM
cholagogic activity [4]: do not exhibit this activity
suppression of rat gastric ulcer induced by ethanol hydrochloride [5]: do not suppress

O=c1oc(-c2ccc(O)c(O)c2)cc2cccc(O)c12 [thunberginol A]
suppression of rat skin passive anaphylaxis ([1]; 300 and 500 mg/kg): suppress
concentration active in differentiation-inducing activity on leukocyte (leukocyte): 100 µM

O=C1O[C@H]([C@@H](O)c2ccc(O)cc2)c2cccc(O)c21 [hydramacrophyllol A, reference compound]
suppression of release of histamine from mast cells (mast cells): not suppressed
